Values of other authors, collected in patent US11400063B2, “Early administration of low-dose colchicine after myocardial infarction” (INSTITUT DE CARDIOLOGIE DE MONTREAL, priority 2019, dated 2022).
Where two headings read alike, the source gives them in different places.

Test system: patients with stable CAD
Conditions: cited from earlier work

## COc1cc2c(c(OC)c1OC)-c1ccc(OC)c(=O)cc1[C@@H](NC(C)=O)CC2 [Colchicine, colchicine]
LoDoCo2, N = 2762, median follow-up 28.6 months
  Primary composite outcome (cardiovascular mortality, myocardial infarction, ischemic stroke, urgent revascularization), Events N: 187 N
LoDoCo2, colchicine vs placebo
  Cardiovascular mortality, HR (95% CI): 0.80 (0.44-1.44)
  Ischemic stroke, HR (95% CI): 0.66 (0.35-1.25)
  Myocardial infarction, HR (95% CI): 0.70 (0.53-0.93)
  Primary composite outcome, HR (95% CI): 0.69 (0.57-0.83)
  Urgent coronary revascularization, HR (95% CI): 0.75 (0.60-0.94)
  all-cause mortality, HR: 1.21
LoDoCo2, colchicine vs placebo, listed as colchicine
  Myocardial infarction, HR (95% CI): 0.70
LoDoCo2
  Cardiovascular mortality, Events %: 0.7%
  Cardiovascular mortality, Events N: 20 N
  Ischemic stroke, Events %: 0.6%
  Ischemic stroke, Events N: 16 N
  Myocardial infarction, Events %: 3.0%
  Myocardial infarction, Events N: 83 N
  Primary composite outcome, Events %: (6.8%)
  Urgent coronary revascularization, Events %: (4.9%)
  Urgent coronary revascularization, Events N: 135 N
